The source of these data is patent US20250367209A1 (SOUTHERN RESEARCH INSTITUTE, priority 2022, published 2025).

Read-outs that look alike come from different tables or passages of the source.

The target in data set [1] is Tau-FynSH3 interaction (Homo sapiens (Human), UniProt P10636). Description: Tau-FynSH3 AlphaScreen. Format: binding. An outline of the steps:
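Purified GST-Fyn-SH3-Strep and His-tagged human 4R2N Tau-Strep from E. coli, tested by AlphaScreen with glutathione donor and nickel chelate acceptor beads in Bis-Tris pH 7.0, TCEP, casein, Tween-20. Compound preincubated 30 min with first protein at 600 nM, then second protein 30 min, then beads 2 h.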
Background: Alpha assays give light when donor and acceptor beads are brought close together.

For data set [2], the target named is Tau-Fyn interaction (Homo sapiens (Human), UniProt P10636). Description: Tau-Fyn PLA screening in HEK-293 cells. Format: cell-based. The conditions noted are these: for Tau-Fyn interaction in cells, Tau-Fyn PLA in HEK-293 cells: compound 15 μM, 24 hours; for PLA: Table 3, Tau-Fyn PLA. The protocol: Tau-Fyn PLA screening in HEK-293 cells: For Tau-Fyn PLA in HEK-293 cells, we used the same plasmids as before (Rush, et al. (2020) Neurobiol Dis 134, 104668): human 4R2N Tau with an N-terminal mKate2 tag in a pcDNA3.1 vector and human Fyn with an N-terminal Myc tag in a pCMV-Sport6 vector grown in Stellar E. coli. HEK-293 cells were plated on coverslips coated with PDL and laminin in a 24-well plate in DMEM supplemented with 10% FBS and 1% PenStrep. Cells were transfected with 125 ng of Tau-mKate2 and Fyn plasmids with 1.5 μL Fugene in plain DMEM. After 24 hours, compound was applied at 15 μM. Twenty-four hours after application, cells were fixed. PLA protocol was the same as above except for different primary antibodies (Tau5 1:500, Fyn3 1:250). After image acquisition, PLA density was calculated as PLA puncta (as above) divided by cell area to account for differences in confluency. Cell area was defined with ImageJ as % Area after theresholding Tau-mKate2 fluorescence because it filled the cells evenly. Puncta/cell area was then normalized to vehicle-treated slides from that experiment.
Sequence of Tau-Fyn interaction (P10636 other isoform, or with tags, fused parts or gaps): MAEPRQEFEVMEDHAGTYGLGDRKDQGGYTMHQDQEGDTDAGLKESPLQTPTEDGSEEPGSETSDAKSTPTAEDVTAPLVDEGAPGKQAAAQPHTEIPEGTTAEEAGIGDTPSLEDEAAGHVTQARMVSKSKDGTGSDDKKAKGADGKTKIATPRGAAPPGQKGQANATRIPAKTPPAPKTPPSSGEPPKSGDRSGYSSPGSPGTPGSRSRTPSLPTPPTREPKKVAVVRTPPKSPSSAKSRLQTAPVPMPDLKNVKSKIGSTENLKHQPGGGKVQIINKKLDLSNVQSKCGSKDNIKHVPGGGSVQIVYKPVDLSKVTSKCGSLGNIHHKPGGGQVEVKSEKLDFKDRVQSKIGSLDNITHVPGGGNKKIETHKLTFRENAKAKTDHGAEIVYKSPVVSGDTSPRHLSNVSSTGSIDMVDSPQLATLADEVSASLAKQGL

Data set [3] can be described thus: Metabolic stability in human liver microsomes. The data set is classed as in vitro ADME. As to conditions: Table 3, read-out: ADME t1/2 (min): HLMt1/2. An excerpt: A computational analysis of the top five hits was then completed to assess the physical attributes of the compounds emerging from the HTS. The target profile for drug-like properties included evaluation of molecular weight (MW), total polar surface area (PSA, the surface sum of all polar atoms on the molecule), solubility, metabolic stability, and partition coefficient (LogD). In general, MW<[…] and PSA <70 Å^2 were targeted, which generally allows for blood-brain barrier (BBB) permeability. Compounds with PSA >100 A^2 are generally poor at permeating cell membranes. Solubility was targeted at >10 μM at pH 7.4 and 40-60% of compound remaining after 60 minutes of incubation in mouse or human liver microsomes (an indicator of compound stability after first-pass metabolism). LogD is the log of the ratio of concentrations of a compound in two immiscible solvents at equilibrium. Values ranging from 2-4 were targeted, typical for CNS drugs. Based on these criteria, compound no. 55 was selected as the top hit for optimization. Compound no.
On the technique in general: Liver microsomes are a subcellular fraction often used to study metabolism.

[4] abbreviates: Table 2, Tau-FynSH3 inhibitory activity in the AlphaScreen, read-out: IC50.
Setting [5] is: Table 3, read-out: Alpha screen IC50.

Sequence of Tau-FynSH3 interaction (P10636 other isoform, or with tags, fused parts or gaps): as above

For orientation: IC50 means the midpoint of a concentration-inhibition curve. Take `O=C(CCN1C(=O)CSc2ccccc21)Nc1nnc(-c2ccccn2)[nH]1` [compound no. 55]: the IC50 in data set [1] (setting [4]) was 5000 nM. In addition, the “Tau-Fyn interaction in cells, Tau-Fyn PLA in HEK-293 cells” value (“Tau-Fyn interaction in cells” below) in data set [2] is “reduced Tau-Fyn interaction in cells”.

As to `O=C(CN1CCOc2ccccc21)Nc1nnc(-c2ccccn2)[nH]1` [compound 47, 2-(2,3-DIHYDRO-4H-BENZO[B][1,4]OXAZIN-4-YL)-N-(5-(PYRIDIN-2-YL)-4H-1,2,4-TRIAZOL-3-YL)ACETAMIDE], the IC50 in data set [1] (setting [4]) amounted to 320 nM; in data set [1] (setting [5]), 910 nM. Further, the half-life in data set [3] came out at 93 min. Also, the PLA result in data set [2] was “Active”.

Take `O=C(CN1CCSc2ccccc21)Nc1nnc(-c2ccccn2)[nH]1` [compound no. 20, 2-(2H-BENZO[B][1,4]THIAZIN-4(3H)-YL)-N-(5-(PYRIDIN-2-YL)-4H-1,2,4-TRIAZOL-3-YL)ACETAMIDE]: the IC50 in data set [1] (setting [4]) turned out to be 550 nM; in data set [1] (setting [5]) it was 552 nM; in data set [1] (unit printed as 'M', Table 2 gives 0.55 μM, read-out: IC50, inhibition in the AlphaScreen), 550 nM. Besides, the half-life in data set [3] came out at 85 min.

As for `O=C(CN1C(=O)CSc2cc(F)ccc21)Nc1nnc(-c2ccccn2)[nH]1` [compound no. 12, 2-(7-FLUORO-3-oxo-2H-BENZO[B][1,4]THIAZIN-4(3H)-YL)-N-(5-(PYRIDIN-2-YL)-4H-1,2,4-TRIAZOL-3-YL)ACETAMIDE], the “AlphaScreen activity (in words)” value in data set [1] is listed as “submicromolar IC50”. The IC50 in data set [1] (setting [4]) was 990 nM. Also, the half-life in data set [3] is over 300 min. Further, in data set [2], the PLA entry was “Active” and the “Tau-Fyn interaction in cells” value was “reduced Tau-Fyn interaction in cells”.

In the case of `O=C(CN1C(=O)CSc2cc(Cl)ccc21)Nc1nnc(-c2ccccn2)[nH]1` [compound no. 13, 2-(7-CHLORO-3-OXO-2H-BENZO[B][1,4]THIAZIN-4(3H)-YL)-N-(5-(PYRIDIN-2-YL)-4H-1,2,4-TRIAZOL-3-YL)ACETAMIDE], in data set [1] (setting [5]), the IC50 was determined as 930 nM. Also, in data set [3], the half-life was over 120 min. Further, in data set [2], the PLA result was “Active” and the “Tau-Fyn interaction in cells” value is recorded as “reduced Tau-Fyn interaction in cells”.

In the case of `O=C(CN1C(=O)CSc2cc(F)c(F)cc21)Nc1nnc(-c2ccccn2)[nH]1` [compound no. 14, 2-(6,7-DIFLUORO-3-OXO-2H-BENZO[B][1,4]THIAZIN-4(3H)-YL)-N-(5-(PYRIDIN-2-YL)-4H-1,2,4-TRIAZOL-3-YL)ACETAMIDE], in data set [1] (setting [5]), the IC50 is 900 nM. The half-life in data set [3] stood at 137 min. Besides, in data set [2], the PLA entry was “Inactive” and the “Tau-Fyn interaction in cells” value is given as “did not reduce Tau-Fyn interaction in cells”.

`O=C(CN1CCOc2ccccc21)Nc1nnc(-c2ccccn2)[nH]1` [compound no. 69]: in data set [1], the “AlphaScreen activity (in words)” value is recorded as “submicromolar activity”. In addition, in data set [2], the “Tau-Fyn interaction in cells” value is listed as “reduced Tau-Fyn interaction in cells”.

`Cc1ccc2c(c1)SCC(=O)N2CC(=O)Nc1nnc(-c2ccccn2)[nH]1` [compound no. 23, 2-(7-METHYL-3-OXO-2H-BENZO[B][1,4]THIAZIN-4(3H)-YL)-N-(5-(PYRIDIN-2-YL)-4H-1,2,4-TRIAZOL-3-YL)ACETAMIDE]: in data set [1] (setting [4]), the IC50 is 790 nM. In addition, the half-life in data set [3] was 133 min. In data set [2], the PLA result is given as “Active” and the “Tau-Fyn interaction in cells” value is reported as “reduced Tau-Fyn interaction in cells”.

For `O=C(CN1CCCc2ccccc21)Nc1nnc(-c2ccccn2)[nH]1` [compound no. 45, 2-(3,4-DIHYDROQUINOLIN-1(2H)-YL)-N-(5-(PYRIDIN-2-YL)-4H-1,2,4-TRIAZOL-3-YL)ACETAMIDE], the IC50 in data set [1] (setting [4]) stood at 1250 nM. In addition, the half-life in data set [3] worked out at 66 min. In data set [2], the PLA result is “Active” and the “Tau-Fyn interaction in cells” value is listed as “reduced Tau-Fyn interaction in cells”.
